The text below walks through data of patent US20120309728A1, “NEW STEROID INHIBITORS OF PGP FOR USE FOR INHIBITING MULTIDRUG RESISTANCE” (priority 2009, published 2012).

SMILES strings stand for the structures. Like-named read-outs stand apart in the source and are kept apart here.

For series [1], the system named is R7 cells. The experiment in a line: Intracellular accumulation of daunorubicin measured by flow cytometry. The format is cell-based, human. The conditions noted are these: daunorubicin 10 μM, compound 10 μM, 1 h at 37° C. The procedure: The accumulation of daunorubicin in the presence of steroid modulators according to the invention, i.e. compounds having formula (I), was measured by flow cytometry using a reported procedure (G. Comte et al, J. Med. Chem., 44: 763-768, 2001). K562 or R7 cells ([…]) were incubated for 1 h at 37° C. with 1 mL RPMI 1640 medium containing daunorubicin at 10 μM, in the presence or absence of compounds of the invention (10 μM). The cells were then washed twice with ice-cold PBS and kept on ice until analysis by flow cytometry on a FACS-II (Becton-Dickinson Corp., Mountain View, Calif.). Assays were performed in duplicate, in at least three separate experiments.

Series [2] deals with resistant R7 cells. The experiment in a line: Reversion of chemoresistance to doxorubicin by steroid modulators (modulation of IC50 for doxorubicin). The format is cell-based, human. As to conditions: in vitro, cyclosporine A in the same conditions. The procedure: FIGS. 3 and 4 represent the effects of compounds of the invention (steroid modulators) on chemosensitization of resistant R7 cells to doxorubicin (DOXO), evaluated by [^3H]thymidine incorporation. Resistant R7 cells were incubated for 24 hours with increasing concentrations of doxorubicinin the absence (∘) or in the presence of said steroid modulators. As a control, the sensitive K562 cells were incubated with the same concentrations of doxorubicin ([…]).
Sensitive parental K562 cells were also treated with the same increasing concentrations of DOXO (from 10^−8 to 10^−4 M) in the absence of steroids, as a control.

Series [3] deals with H295R cells. Put plainly: cells. The procedure: (§1) After treatment, the number of surviving cells was evaluated by the incorporation of [^3H]thymidine as described above.
In series [4] the test system is K562/R7 cells. Put plainly: Determination of IC50 for cytotoxics ([^3H]thymidine incorporation). The procedure: as §1
On the technique in general: Uptake of a labelled nucleoside into DNA is a usual measure of proliferation.

In series [5] the test system is H295R cells. The experiment in a line: Cytotoxicity assay using [^3H]thymidine incorporation in surviving cells, with doxorubicin plus steroid modulator. It is filed as cell-based, human. The conditions noted are these: comment on Table 2, both value columns. The procedure: Doxorubicine (DOXO) at 10^−6 M was added shortly thereafter to each well. […] Finally the precipitate was solubilized by addition of 300 μL of a solution of sodium deoxycholate (4% in NaOH 0.5 M) (O. Joly-Pharaboz et al., J Steroid Biochem. Mol. Biol. 73 (2000) 237-249). Radioactivity was measured (Tri-Carb 1900 CA, Packard) after addition of liquid scintillation cocktail (Perkin Elmer, Courtaboeuf, France). […] At least three different experiments were performed for each cell type.

Series [6] has as its system K562/R7 cells. Put plainly: Cytotoxicity assay using MTT reagent, with doxorubicin plus steroid modulator. The conditions noted are these: doxorubicin 10^−6M + steroid modulator 10^−6M, 72 h. It is filed as cell-based, human. The procedure:
Doxorubicin at 10^−6 M was then added to each well. After incubation for 72 h, 20 μL of MTT reagent (5 mg/mL in PBS buffer) were added to each well and the plate was further incubated for 4 h at 37° C., allowing viable cells to change the yellow MTT into dark-blue formazan crystals. Supernatants were carefully discarded and 100 μL of isopropanol containing 10% HCL 1M were added to dissolve the formazan crystals. Absorbance in each well was determined at 570 nm using a microplate reader (MultisKan EX, Thermo Electron). […] At least three different experiments were performed. Results were expressed as the percentage of surviving cells in each well compared to untreated cells.
In general terms: Tetrazolium assays rely on reduction of a dye to a coloured formazan, in cell work by metabolically active cells.

Series [7] concerns H295R cells xenograft. Put plainly: In vivo efficiency in SCID mice xenografted with H295R cells. The source says: (§2) FIGS. 7 and 8 represent the tumour volume of mice treated with vehicle ([…]), doxorubicin (∘), compound (33) alone (▾), and compound (33) with doxorubicin (Δ). The tumor volume is indicated as a function of days. FIG. 7 concerns mice xenografted with H295R cells and FIG. 8 concerns mice xenografted with R7 cells (the arrow indicates the beginning of treatment of mice).
(§3) For each xenograft, four groups of five mice developing a tumour in both flanks were employed. Group 1 received vehicle alone, group 2 received DOXO (1.5 mg/kg/mouse+vehicle), group 3 received (33) derivative (10 mg/kg/mouse solubilised with vehicle) and group 4 received DOXO+derivative.

Series [8] relates to R7 cells xenograft. The experiment in a line: In vivo efficiency in SCID mice xenografted with R7 cells.
Description: as §2, §3

The mark [9] stands for this setting: DOXO 1.5 mg/kg/mouse + derivative 10 mg/kg/mouse (group 4) versus groups 1, 2 and 3.
Where [10] appears, read: DOXO + derivative (group 4), 40 days of treatment.

As for `CC(=O)[C@@]1(OC2CCCCO2)CCC2C3CC[C@@H]4CC(=O)CC[C@]4(C)C3[C@H](OC3CCCCO3)C[C@@]21C` (stereo partly drawn) [Compound 51, 11α,17α-Bis-O-[2′(S),2′(R)]tetrahydropyranyloxy(5β)pregnane-3,20-dione], the Daunorubicin accumulation in series [1] is recorded as 68.02 ± 15.6 % of the accumulation measured in the presence of cyclosporine A. For the same molecule, in series [2], the “potency relative to cyclosporine A in decreasing IC50 for doxorubicin” value was found to be 10 fold.

For the molecule `O=C1c2c(O)ccc(O)c2C(=O)c2c(NCCNCCO)ccc(NCCNCCO)c21` [mitoxantrone], the “resistance of the cells to the cytotoxic drug (in words)” value (from here on “resistance of the cells”) in series [3] and in series [4] was “resistant” in each case.

Turning to `CC[C@]1(O)C[C@@H]2CN(CCc3c([nH]c4ccccc34)[C@@](C(=O)OC)(c3cc4c(cc3OC)N(C)[C@H]3[C@@](O)(C(=O)OC)[C@H](OC(C)=O)[C@]5(CC)C=CCN6CC[C@]43[C@@H]65)C2)C1` [vinblastine], in series [4], the “resistance of the cells” value was “resistant”.

For the molecule `COc1cc2c(c(OC)c1OC)-c1ccc(OC)c(=O)cc1[C@@H](NC(C)=O)CC2` [colchicine], the “resistance of the cells” value in series [4] (R7 cells, 24 h treatment) is “resistant”.

As for `CCC1=C[C@@H]2CN(C1)Cc1c([nH]c3ccccc13)[C@@](C(=O)OC)(c1cc3c(cc1OC)N(C)[C@H]1[C@@](O)(C(=O)OC)[C@H](OC(C)=O)[C@]4(CC)C=CCN5CC[C@]31[C@@H]54)C2` [vinorelbine], the “resistance of the cells” value in series [3] is listed as “resistant”.

As for `COc1cccc2c1C(=O)c1c(O)c3c(c(O)c1C2=O)C[C@@](O)(C(=O)CO)C[C@@H]3O[C@H]1C[C@H](N)[C@H](O)[C@H](C)O1` [doxorubicin], the IC50 worked out at 20.6 µM in series [3] (Homo sapiens, NCI-H295R, 24 h, read-out: IC50 of cytotoxic drug (concentration inhibiting cell growth by 50%)) and 63.6 µM in series [4] (Homo sapiens, K562/R7, 24 h, read-out: IC50 of cytotoxic drug (concentration inhibiting cell growth by 50%)).

Regarding `CC(=O)C1CCC2C3C([C@H](OC4CCCCO4)C[C@]12C)[C@@]1(C)CCC(=O)C[C@H]1C[C@H]3OC(=O)c1ccccc1` (stereo partly drawn) [Compound 33, 7α-Benzoyloxy-11α-O-[2′(R)]tetrahydropyranyl-oxy(5β)pregnane-3,20-dione], the “activity to increase the cytotoxicity of doxorubicin (in words)” value in series [5] is listed as “activity similar to cyclosporine A”. Moreover, the “Surviving cells R7 cells (% untreated cells)” value in series [6] was determined as 1.5 ± 0.9 % untreated cells. The “potency relative to cyclosporine A in decreasing IC50 for doxorubicin” value in series [2] is given as 10 fold. The development of tumour entry in series [7] (setting [9]) and in series [8] (setting [9]) was “delay in the development of tumour” throughout. The survival time result in series [7] (DOXO + derivative (group 4)) and in series [8] (DOXO + derivative (group 4)) was “longer survival time” each time. Moreover, the tumour volume result is “remains low and stable” in series [7] (setting [10]); “remains low and stable” in series [8] (setting [10]).

On to `COC(=O)CC[C@@H](C)C1CCC2C3C[C@H](OC4CCCCO4)[C@@H]4CC(=O)CCC4(C)C3CCC21C` (stereo partly drawn) [Compound 210, Methyl 3-oxo-6α-O-[2′(R+S)]tetrahydropyranyloxycholanate], for which, in series [6], the “Surviving cells R7 cells (% untreated cells)” value is reported as 4.1 ± 1.1 % untreated cells. Besides, the Daunorubicin accumulation in series [1] was 66.7 ± 1.8 % of the accumulation measured in the presence of cyclosporine A.
